According to the supplement of paper PMC11061612:

Tests used:
Test in all cases: Bliss excess, mean over the matrix (fraction); higher = more synergy
[1] = system: SK-GT-2 (Gastric Carcinoma)
Outline: (§1)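 Bliss excess equals the observed combination effect minus the expected value EA + EB − EA·EB, where EA and EB are the effects of each agent alone. Combination Emax is the second-highest inhibition within the matrix. Inhibition was scaled from CellTiter-Glo 2.0 luminescence, with 0 set by vehicle wells and 1 by blank wells, after 72 hours of two-drug dosing of cells plated in 1536-well plates.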

[2] = system: HCC1187 (Breast Carcinoma)
Outline: as §1

SJSA-1 (Osteosarcoma) = system: SJSA-1 (Osteosarcoma)
Outline: as §1

[3] = system: KMS-12-BM (Plasma Cell Myeloma)
Outline: as §1

[4] = system: VMRC-RCZ (Kidney Carcinoma)
Outline: as §1

RD (Rhabdomyosarcoma) = system: RD (Rhabdomyosarcoma)
Outline: as §1

[5] = system: SNU-398 (Hepatocellular Carcinoma)
Outline: as §1

M059J (Glioblastoma) = system: M059J (Glioblastoma)
Outline: as §1

[6] = system: CHSA8926 (Chondrosarcoma)
Outline: as §1

[7] = system: ST486 (Burkitt's Lymphoma)
Outline: as §1

[8] = system: MOLM-13 (Acute Myeloid Leukemia)
Outline: as §1

[9] = system: JHH-4 (Hepatocellular Carcinoma)
Outline: as §1

[10] = system: NCI-H3122 (Lung Adenocarcinoma)
Outline: as §1

[11] = system: DMS-114 (Small Cell Lung Carcinoma)
Outline: as §1

[12] = system: H9 (T-Cell Non-Hodgkin's Lymphoma)
Outline: as §1

[13] = system: HCC1419 (Breast Carcinoma)
Outline: as §1

[14] = system: NCI-H526 (Small Cell Lung Carcinoma)
Outline: as §1

[15] = system: CW-2 (Colorectal Carcinoma)
Outline: as §1

[16] = system: DAN-G (Pancreatic Carcinoma)
Outline: as §1

[17] = system: NCCIT (Other Solid Carcinomas)
Outline: as §1

SMILES | Bliss excess [1] | Bliss excess [2] | Bliss excess (SJSA-1 (Osteosarcoma)) | Bliss excess [3] | Bliss excess [4] | Bliss excess (RD (Rhabdomyosarcoma)) | Bliss excess [5] | Bliss excess (M059J (Glioblastoma)) | Bliss excess [6] | Bliss excess [7] | Bliss excess [8] | Bliss excess [9] | Bliss excess [10] | Bliss excess [11] | Bliss excess [12] | Bliss excess [13] | Bliss excess [14] | Bliss excess [15] | Bliss excess [16] | Bliss excess [17]
COc1cccc(OCCCN)c1-c1cc(Nc2cnc(C#N)cn2)n[nH]1 [Prexasertib] + C[C@@H]1COCCN1C2=NC(=NC(=C2)C3(CC3)[S@](=N)(=O)C)C4=C5C=CNC5=NC=C4 [AZD6738] (first compound max 1 µM, 7x7, partner max 10 µM) | -0.0043 | 0.0754 | 0.0188 | -0.0071 | 0.0255 | 0.0085 | 0.026 | -0.0325 | 0.0171 | -0.0336 | -0.0051 | 0.0024 | 0.0704 | 0.0485 | -0.0023 | -0.0473 | 0.0283 | 0.0785 | -0.0309 | 0.011
C=CCn1c(=O)c2cnc(Nc3ccc(N4CCN(C)CC4)cc3)nc2n1-c1cccc(C(C)(C)O)n1 [AZD1775] + C1CN(CCC1(C(=O)N[C@@H](CCO)C2=CC=C(C=C2)Cl)N)C3=NC=NC4=C3C=CN4 [Capivasertib] (first compound max 3 µM, partner max 3 µM) | 0.0174 | 0.0216 | -0.0088 | 0.0629 | -0.083 | -0.034 | 0.0054 | -0.064 | 0.0361 | 0.0215 | 0.0263 | 0.0061 | -0.0298 | -0.0132 | -0.0311 | -0.005 | -0.06 | -0.0487 | -0.0191 | 0.0254
Cn1cnc2c(F)c(Nc3ccc(Br)cc3Cl)c(C(=O)NOCCO)cc21 [Selumetinib] + C[C@@H]1COCCN1C2=NC(=NC(=C2)C3(CC3)[S@](=N)(=O)C)C4=C5C=CNC5=NC=C4 [AZD6738] (first compound max 10 µM, 7x7, partner max 10 µM) | -0.0229 | -0.0539 | 0.0241 | 0.0112 | -0.0594 | 0.0877 | 0.0082 | -0.056 | -0.031 | -0.0592 | 0.0491 | -0.0395 | -0.0471 | -0.0395 | -0.03 | -0.0522 | -0.0544 | 0.009 | 0.0105 | -0.0802
CC1(C)CCC(CN2CCN(c3ccc(C(=O)NS(=O)(=O)c4ccc(NCC5CCOCC5)c([N+](=O)[O-])c4)c(Oc4cnc5[nH]ccc5c4)c3)CC2)=C(c2ccc(Cl)cc2)C1 [Venetoclax] + COc1cc(Nc2ncc3c(n2)-c2ccc(Cl)cc2C(c2c(F)cccc2OC)=NC3)ccc1C(=O)O [Alisertib] (first compound max 1 µM, 7x7, partner max 10 µM) | -0.0274 | -0.0999 | -0.0583 | 0.085 | -0.0292 | 0.0506 | -0.0219 | 0.0401 | -0.025 | -0.133 | 0.0371 | -0.0328 | -0.0278 | 0.0341 | -0.0674 | -0.0573 | 0.194 | -0.0094 | -0.0024 | 0.0159
Cc1cc2ncnn2cc1Nc1ncc2c(n1)n(C1CCOCC1)c(=O)n2C [AZD7648] + C[C@@H]1COCCN1C2=NC(=NC(=C2)C3(CC3)[S@](=N)(=O)C)C4=C5C=CNC5=NC=C4 [AZD6738] (first compound max 10 µM, 7x7, partner max 10 µM) | -0.0034 | 0.0005 | 0.0225 | 0.0125 | 0.0115 | 0.0425 | -0.0097 | 0.0282 | -0.0325 | 0.0077 | 0.0003 | 0.013 | 0.038 | -0.0072 | -0.0034 | -0.0221 | 0.0174 | 0.0297 | -0.0093 | 0.0116
CCc1c2c(nc3ccc(O)cc13)-c1cc3c(c(=O)n1C2)COC(=O)[C@]3(O)CC [SN-38] + CN(C)CCCOc1ccc(-c2ccc3ncc4c(c3c2)n(C2CCOCC2)c(=O)n4C)cn1 [AZD0156] (first compound max 0.3 µM, 7x7, partner max 1 µM) | 0.0054 | -0.0347 | -0.0469 | 0.0462 | -0.0124 | -0.0329 | 0.0255 | -0.0104 | -0.0646 | 0.0498 | 0.0493 | 0.0443 | 0.0427 | 0.0147 | 0.116 | -0.0773 | 0.0215 | -0.0118 | 0.0626 | 0.0163
